# Measurements from the supplement of paper PMC10307832.
# Key:
# Experiment in all cases: relative viability (nuclei count vs DMSO), 5 days (fraction); higher = more cells survive
# Trametinib + Navitoclax = compound: CC(=O)Nc1cccc(-n2c(=O)n(C3CC3)c(=O)c3c(Nc4ccc(I)cc4F)n(C)c(=O)c(C)c32)c1 [Trametinib] + CC1(C)CCC(c2ccc(Cl)cc2)=C(CN2CCN(c3ccc(C(=O)NS(=O)(=O)c4ccc(N[C@H](CCN5CCOCC5)CSc5ccccc5)c(S(=O)(=O)C(F)(F)F)c4)cc3)CC2)C1 [Navitoclax] (partner 0.5 µM)
# Outline: (§1)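 Lung cancer cell lines, seeded in 1536-well plates, were treated the following day by pin tool with a single drug or with five library-drug doses (not always all listed) in √10 steps on top of a fixed anchor-drug dose. Cells were fixed and nuclei stained in one step after 5 days, and nuclei were counted. Relative viability is the nuclei count for treated wells divided by that for vehicle wells, reported as medians of duplicate plates.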
# [1] = compound: CN1C=C(C2=CC=CC=C21)/C=C\3/C4=C(C=CC=N4)NC3=O + CC(C)C[C@H](NC(=O)[C@H](Cc1ccccc1)NC(=O)c1cnccn1)B(O)O [Bortezomib] (partner 0.002 µM)
# Outline: as §1
# [2] = compound: CN1C=C(C2=CC=CC=C21)/C=C\3/C4=C(C=CC=N4)NC3=O + CC1(C)CCC(c2ccc(Cl)cc2)=C(CN2CCN(c3ccc(C(=O)NS(=O)(=O)c4ccc(N[C@H](CCN5CCOCC5)CSc5ccccc5)c(S(=O)(=O)C(F)(F)F)c4)cc3)CC2)C1 [Navitoclax] (partner 0.5 µM)
# Outline: as §1
# [3] = compound: CN1C=C(C2=CC=CC=C21)/C=C\3/C4=C(C=CC=N4)NC3=O + C[C@]1(O)C[C@@H](c2nc(-c3ccc4ccc(-c5ccccc5)nc4c3)c3c(N)nccn32)C1 [Linsitinib] (partner 1 µM)
# Outline: as §1
Cell Line,relative viability (Trametinib + Navitoclax; first compound 0.0025 µM),relative viability (Trametinib + Navitoclax; first compound 0.007906 µM),relative viability (Trametinib + Navitoclax; first compound 0.025 µM),relative viability (Trametinib + Navitoclax; first compound 0.07906 µM),relative viability (Trametinib + Navitoclax; first compound 0.25 µM),relative viability ([1]; first compound 0.02 µM),relative viability ([1]; first compound 0.06325 µM),relative viability ([1]; first compound 0.2 µM),relative viability ([1]; first compound 0.6325 µM),relative viability ([1]; first compound 2 µM),relative viability ([2]; first compound 0.02 µM),relative viability ([2]; first compound 0.06325 µM),relative viability ([2]; first compound 0.2 µM),relative viability ([2]; first compound 0.6325 µM),relative viability ([2]; first compound 2 µM),relative viability ([3]; first compound 0.02 µM),relative viability ([3]; first compound 0.06325 µM),relative viability ([3]; first compound 0.2 µM),relative viability ([3]; first compound 0.6325 µM),relative viability ([3]; first compound 2 µM)
HARA,0.984,1.1,1.14,1.06,0.976,1.06,1.09,0.87,1.18,1.14,1.09,1.15,1.04,1.17,1.17,0.93,0.92,1.03,0.932,1.06
NCI-H1703,1.15,1.15,1.06,0.972,0.987,0.407,0.401,0.258,0.41,0.356,1.06,1.03,1.01,0.966,0.998,0.489,0.848,0.581,0.94,1.02
NCI-H2023,0.864,0.825,0.877,0.549,0.33,1.09,0.903,0.268,0.958,1.04,1.06,0.935,0.961,1.03,0.996,0.615,0.657,0.628,0.665,0.692
NCI-H1437,1.15,0.724,0.537,0.377,0.312,0.629,0.613,0.475,0.511,0.54,1.08,1.08,1.18,1.18,1.19,1.06,1.12,1.25,1.18,1.2
BEN,0.0591,0.054,–,0.0541,0.179,0.82,0.557,0.64,0.593,0.917,0.0672,0.0704,0.0656,0.0636,0.0694,0.847,0.996,0.823,0.875,1.03
LXF-289,0.872,0.755,0.721,0.63,0.538,0.951,0.992,1.1,1.02,1.04,0.962,0.908,0.97,1.01,1.01,0.901,0.935,1.04,1,0.999
NCI-H1993,0.794,0.748,0.65,0.764,0.774,0.916,1.09,1.09,0.691,0.697,0.726,0.768,0.894,0.682,0.856,0.539,0.635,0.71,0.765,0.621
NCI-H727,0.158,0.117,0.0956,0.0926,0.0927,0.923,0.564,0.646,1.24,1.32,0.396,0.349,0.385,0.372,0.4,0.285,0.204,0.282,0.323,0.263
LOU-NH91,0.657,0.528,0.57,0.448,0.32,0.473,0.489,0.468,0.441,0.485,0.555,0.603,0.596,0.602,0.678,0.858,0.889,0.851,0.928,0.927
NCI-H1975,0.999,1,0.713,0.466,0.395,0.431,0.36,0.344,0.322,0.317,0.955,1.05,1.07,0.937,0.94,0.921,1.04,0.982,0.694,0.661
PC-3 [JPC-3],0.815,0.793,0.709,0.705,0.455,0.7,0.893,0.804,0.838,0.761,0.782,0.743,0.788,0.812,0.683,0.947,0.902,0.974,0.889,0.917
NCI-H2126,0.781,0.684,0.516,0.589,0.508,1.19,1.15,1.09,1.16,1.12,0.789,0.824,0.833,0.859,0.8,0.739,0.751,0.727,0.745,0.65
LU99A,0.855,0.779,0.465,0.363,0.235,1.16,1.09,1.09,1.13,0.964,0.86,0.849,0.857,0.865,0.79,0.534,0.506,0.509,0.485,0.617
NCI-H23,0.624,0.58,0.347,0.344,0.247,1.02,0.982,–,0.938,1.21,0.558,0.764,–,0.807,0.931,0.614,0.648,–,0.655,0.631
